Reference: paper doi:10.1101/2024.07.16.603720v1 (biorxiv, 2024)
Values after ≈ are worked out from the molar mass of the structure shown.

T1: sDacD (sPBP6b) (Acinetobacter baumannii, UniProt A0ABX6CI93)
T1 sequence (A0ABX6CI93 22-409): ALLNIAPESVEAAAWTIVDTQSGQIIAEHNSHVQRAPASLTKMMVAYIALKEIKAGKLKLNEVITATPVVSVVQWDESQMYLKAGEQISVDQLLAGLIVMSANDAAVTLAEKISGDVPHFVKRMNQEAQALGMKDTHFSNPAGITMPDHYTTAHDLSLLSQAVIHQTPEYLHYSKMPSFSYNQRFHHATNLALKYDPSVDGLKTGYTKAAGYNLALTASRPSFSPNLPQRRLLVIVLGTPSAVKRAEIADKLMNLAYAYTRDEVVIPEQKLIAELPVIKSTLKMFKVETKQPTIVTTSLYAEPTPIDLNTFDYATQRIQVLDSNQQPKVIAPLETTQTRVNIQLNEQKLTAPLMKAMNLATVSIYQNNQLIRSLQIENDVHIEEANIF

T2: sDacC (sPBP5/6) (Acinetobacter baumannii, UniProt G1C735)
T2 sequence (G1C735 20-367): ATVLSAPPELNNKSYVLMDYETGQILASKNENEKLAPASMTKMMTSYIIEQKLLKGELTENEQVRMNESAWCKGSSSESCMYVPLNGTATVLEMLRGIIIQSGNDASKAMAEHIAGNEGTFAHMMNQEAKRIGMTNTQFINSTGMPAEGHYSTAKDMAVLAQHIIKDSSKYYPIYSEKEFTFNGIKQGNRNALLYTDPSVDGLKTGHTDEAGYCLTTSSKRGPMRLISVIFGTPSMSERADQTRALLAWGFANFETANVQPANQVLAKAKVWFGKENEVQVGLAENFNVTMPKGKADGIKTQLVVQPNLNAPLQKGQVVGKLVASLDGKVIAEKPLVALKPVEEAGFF

B1: sDacC (sPBP5/6) (Acinetobacter baumannii) (protein)
chain: T2 sequence (G1C735 20-367)

Tests used:
[1] = test system: A. baumannii AB19606 WT (19606); assay: microbe, parasite or virus in culture; parameters: species or system Acinetobacter baumannii AB19606; settings: Acinetobacter baumannii, read-out: MIC
sDacD (sPBP6b) [2] = target: T1, sDacD (sPBP6b); assay: Bocillin FL competition, SDS-PAGE fluorescence; type: binding
sDacC (sPBP5/6) [3] = target: T2, sDacC (sPBP5/6); assay: Bocillin FL competition, SDS-PAGE fluorescence; type: binding
sDacC (sPBP5/6) [4] = target: T2, sDacC (sPBP5/6); assay: biochemical
sDacD (sPBP6b) [5] = target: T1, sDacD (sPBP6b); assay: biochemical
[6] = substrate: NC(=O)c1cc[n+](CC2=C(C(=O)O)N3C(=O)[C@@H](NC(=O)[C@@H](c4ccccc4)S(=O)(=O)[O-])[C@H]3SC2)cc1; assay: purified protein, by the assay type; settings: pH 7.4; 30.0 °C
[7] = substrate: CC(C)(O/N=C(\C(=O)N[C@@H]1C(=O)N2C(C(=O)[O-])=C(C[n+]3ccccc3)CS[C@H]12)c1csc(N)n1)C(=O)O; assay: purified protein, by the assay type; settings: pH 7.4; 30.0 °C
[8] = substrate: C[C@@H](O)[C@H]1C(=O)N2C(C(=O)O)=C(S[C@@H]3CN[C@H](C(=O)N(C)C)C3)[C@H](C)[C@H]12; assay: purified protein, by the assay type; settings: pH 7.4; 30.0 °C
[9] = substrate: C[C@@H](O)[C@H]1C(=O)N2C(C(=O)O)=C(S[C@@H]3CN[C@H](CNS(N)(=O)=O)C3)[C@H](C)[C@H]12; assay: purified protein, by the assay type; settings: pH 7.4; 30.0 °C
purified protein [10] = substrate: CO/N=C(\C(=O)N[C@@H]1C(=O)N2C(C(=O)O)=C(COC(C)=O)CS[C@H]12)c1csc(N)n1; assay: purified protein; settings: 10 mM phosphate, pH 7.4, 30 °C
purified protein [11] = substrate: CC1(C)S[C@@H]2[C@H](NC(=O)Cc3ccccc3)C(=O)N2[C@H]1C(=O)O; assay: purified protein; settings: 10 mM phosphate, pH 7.4, 30 °C
purified protein [12] = substrate: C[C@@H](O)[C@H]1C(=O)N2C(C(=O)O)=C(SCCN=CN)C[C@H]12; assay: purified protein; settings: 10 mM phosphate, pH 7.4, 30 °C
purified protein [13] = substrate: CC1(C)S[C@@H]2[C@H](NC(=O)[C@H](C(=O)O)c3ccsc3)C(=O)N2[C@H]1C(=O)O; assay: purified protein; settings: 10 mM phosphate, pH 7.4, 30 °C

Row | Molecule | MIC [1] [µg/mL] | IC50 (sDacD (sPBP6b) [2]) [µM] | IC50 (sDacC (sPBP5/6) [3]) [µM] | also measured
1 | CC1(C)S[C@@H]2[C@H](NC(=O)Cc3ccccc3)C(=O)N2[C@H]1C(=O)O [Penicillin G] | > 2000 | – | – | –
2 | CO/N=C(\C(=O)N[C@@H]1C(=O)N2C(C(=O)O)=C(COC(C)=O)CS[C@H]12)c1csc(N)n1 [Cefotaxime] | 64 (≈ 141 µM) | – | – | –
3 | CC(C)(O/N=C(\C(=O)N[C@@H]1C(=O)N2C(C(=O)[O-])=C(C[n+]3ccccc3)CS[C@H]12)c1csc(N)n1)C(=O)O [CAZ, Ceftazidime] | 16 (≈ 29.3 µM) | – | – | –
4 | C=CC1=C(C(=O)O)N2C(=O)[C@@H](NC(=O)/C(=N\OCC(=O)O)c3csc(N)n3)[C@H]2SC1 [Cefixime] | – | 52.8 | 20.9 | –
5 | O=C(O)[C@H]1/C(=C/CO)O[C@@H]2CC(=O)N21 [Clavulanic acid] | – | 5.8 | – | –
6 | C[C@@H](O)[C@H]1C(=O)N2C(C(=O)O)=C(S[C@@H]3CN[C@H](CNS(N)(=O)=O)C3)[C@H](C)[C@H]12 [Doripenem] | 1.6 (≈ 3.8 µM) | 1.7 | 9.2 | –
7 | C[C@]1(Cn2ccnn2)[C@H](C(=O)O)N2C(=O)C[C@H]2S1(=O)=O [Tazobactam] | – | – | – | IC50 (sDacC (sPBP5/6) [4]): 1830 µM; IC50 (sDacD (sPBP6b) [5]): 1590 µM
8 | CO/N=C(\C(=O)N[C@@H]1C(=O)N2C(C(=O)O)=C(COC(N)=O)CS[C@H]12)c1ccco1 [Cefuroxime] | 500 (≈ 1180 µM) | 161 | 12.9 | –
9 | NC(=O)c1cc[n+](CC2=C(C(=O)[O-])N3C(=O)[C@@H](NC(=O)[C@@H](c4ccccc4)S(=O)(=O)O)[C@H]3SC2)cc1 [Cefsulodin] | 250 (≈ 469 µM) | 8.6 | 6.3 | –
10 | Cc1onc(-c2ccccc2)c1C(=O)N[C@@H]1C(=O)N2[C@@H]1SC(C)(C)[C@@H]2C(=O)O [Oxacillin] | 500 (≈ 1250 µM) | 417 | 95.9 | –
11 | CC1(C)[C@H](C(=O)O)N2C(=O)C[C@H]2S1(=O)=O [Sulbactam] | – | 3.8 | – | IC50 (sDacC (sPBP5/6) [4]): 184 µM
12 | CC1(C)S[C@@H]2[C@H](NC(=O)[C@H](N)c3ccc(O)cc3)C(=O)N2[C@H]1C(=O)O [AMX, Amoxicillin] | 1000 (≈ 2740 µM) | – | – | –
13 | CCN1CCN(C(=O)N[C@@H](C(=O)N[C@@H]2C(=O)N3[C@@H]2SC(C)(C)[C@@H]3C(=O)O)c2ccccc2)C(=O)C1=O [PIP, Piperacillin] | 500 (≈ 966 µM) | – | – | IC50 (sDacC (sPBP5/6) [4]): 539 µM; IC50 (sDacD (sPBP6b) [5]): 3280 µM
14 | C[C@@H](O)[C@H]1C(=O)N2C(C(=O)O)=C(S[C@@H]3CN[C@H](C(=O)N(C)C)C3)[C@H](C)[C@H]12 [Meropenem] | 1.6 (≈ 4.17 µM) | 2.7 | 15.7 | –
15 | CO[C@@]1(NC(=O)Cc2cccs2)C(=O)N2C(C(=O)O)=C(COC(N)=O)CS[C@@H]21 [FOX, Cefoxitin] | 500 (≈ 1170 µM) | – | – | –
16 | CC1(C)S[C@@H]2[C@H](NC(=O)[C@H](C(=O)O)c3ccsc3)C(=O)N2[C@H]1C(=O)O [Ticarcillin] | 16 (≈ 41.6 µM) | – | – | –
17 | B1 | – | – | – | Km [6]: 21.21 µM; kcat [6]: 12.2 s⁻¹; kcat/Km [6]: 570000 M⁻¹ s⁻¹; Km [7]: 21.09 µM; kcat [7]: 8.36 s⁻¹; kcat/Km [7]: 390000 M⁻¹ s⁻¹; Km [8]: 12.19 µM; kcat [8]: 10 s⁻¹; kcat/Km [8]: 820000 M⁻¹ s⁻¹; Km [9]: 17.39 µM; kcat [9]: 5.35 s⁻¹; kcat/Km [9]: 310000 M⁻¹ s⁻¹; Km (purified protein [10]): 6.09 ± 0.9 µM; kcat (purified protein [10]): 7.04 ± 1.1 s⁻¹; Km (purified protein [11]): 8.2 ± 1.4 µM; kcat (purified protein [11]): 65.81 ± 12.5 s⁻¹; Km (purified protein [12]): 3.75 ± 0.4 µM; kcat (purified protein [12]): 7.52 ± 0.5 s⁻¹; Km (purified protein [13]): 12.47 ± 2.5 µM; kcat (purified protein [13]): 93.31 ± 9.0 s⁻¹
